Eight molecules from article PMC9540667, “Novel insights on [1,2]oxazolo[5,4‐e]isoindoles on multidrug resistant acute myeloid leukemia cell line” (Drug Development Research, 2022) can be followed below.

Common to all, as to type: cell-based
For one assay, the system named is HL‐60 cells. Kind of assay: Cell growth assay (MTS), HL-60 cells. The following applies: mean ± SE. On the procedure: (§1) HL‐60 cells were obtained from ATCC® (CCL‐240), whereas its variant HL‐60R was selected for MDR by exposure to gradually increasing concentrations of doxorubicin. MCF‐7 cells were obtained from ATCC® (HTB‐22). The nontumorigenic cell lines hTERT‐RPE‐1 (ATCC, CRL‐4010) and 1‐7HB2 (ECACC 10081201‐Cancer Research Technology) was kindly provided by Prof. Patrizia Cancemi and Prof. Giulio Ghersi (STEBICEF Department, University of Palermo, Italy), respectively. Cells were cultured in a humidified atmosphere at 37°C in 5% CO2. After obtaining the cells, the first passage carried out was assigned passage number 1. Cells with a narrow range of passage number […] were routinely tested for Mycoplasma contamination and were used for all experiments. HL‐60 and HL‐60R cells were cultured in Roswell Park Memorial Institute (RPMI) 1640, while MCF‐7, hTERT‐RPE‐1, and 1‐7HB‐2 cells were cultured in Dulbecco's Modified Eagle Medium (DMEM) (HyClone Europe Ltd.) low glucose, in particular only for 1‐7HB‐2 cells supplemented with hydrocortisone (5 μg/ml) and insulin (10 μg/ml). All media were supplemented with 10% heat‐inactivated fetal calf serum, 2 mM L‐glutamine, 100 U/ml penicillin, and 100 μg/ml streptomycin (all reagents were from EuroClone S.p.A.; GE Healthcare Life Sciences).
(§2) Cells were seeded at 5 × 10^3 cells/well onto 96 well plates and incubated overnight at 37°C. At time 0, the medium was replaced with fresh complete medium supplemented with the [1,2]oxazolo[5,4‐e]isoindoles at large concentrations range. Following 72 h of treatment, 15 µl commercial solution obtained from Promega Corp. containing 3‐(4,5‐dimethylthiazol‐2‐yl)−5‐(3‐carboxymethoxyphenyl)−2‐(4‐sulphophenyl)−2H‐tetrazolium (MTS) and phenazine ethosulfate was added. The plates were incubated in a humidified atmosphere at 37°C in 5% CO2 for 2 h, and the bioreduction of MTS dye was evaluated by measuring the absorbance of each well at 490 nm using a microplate absorbance reader (iMark Microplate Reader; Bio‐Rad Laboratories, Inc.). Cell growth inhibition was expressed as a percentage of the absorbance of the control cells. Data were expressed as mean ± standard error (SE) of at least three different experiments performed in triplicate.

In assay [1] the test system is HL‐60R cells. Kind of assay: Cell growth assay (MTS), HL-60R MDR variant. As to conditions: 72 h of treatment, mean ± SE. How it is done: as §1, §2
The test system of another assay is MCF‐7 cells. As to the kind of experiment: Cell growth assay (MTS), MCF-7 breast cancer cells. As to conditions: 72 h, the maximum concentration used in the MTS assay is reported. On the procedure:
as §1, §2
On the technique in general: Tetrazolium dyes change colour on reduction, which living cells bring about.

The subject of another assay is hTERT‐RPE‐1 cells. As to the kind of experiment: Cell growth assay (MTS), non-tumorigenic hTERT-RPE-1 cells. As to conditions: 72 h, the maximum concentration used in the MTS assay is reported, read-out: h‐TERT‐RPE‐1 (IC50). On the procedure: as §1, §2
The next assay relates to 1‐7HB2 cells. Kind of assay: Cell growth assay (MTS), non-tumorigenic 1-7HB2 cells. As to conditions: 72 h, the maximum concentration used in the MTS assay is reported. How it is done: as §1, §2
Assay [2] has as its system HL‐60R cells. Kind of assay: Viable cell count with Trypan blue exclusion test (cotreatments). As to conditions: for synergistic / potentiation effect with the reference drugs (VIN or PTX): cotreatment at sub-cytotoxic concentrations. How it is done: Potentiation or synergism due to cotreatments were evaluated by viable cell count with Trypan blue exclusion test. Data were expressed as mean ± SE of at least three different experiments performed in duplicate.

A further assay deals with HL‐60R cell line. As to the kind of experiment: Intracellular accumulation of doxorubicin (flow cytometry). On the procedure:
The effects of 4e and 4k on intracellular accumulation of doxorubicin were evaluated in the HL‐60R cell line. […] After 24 h of incubation doxorubicin 2 µM was added for 1 h. The cells were subsequently washed with PBS twice and then resuspended in a final volume of 400 µl of PBS. The fluorescence intensity of doxorubicin was measured by flow cytometry using a FACSAria III instrument (Becton Dickinson).

With `c1ccc(Cn2cc3c(c2)-c2oncc2CC3)cc1` [4a], the IC50 (in general, the point on the concentration scale where inhibition reaches its midpoint) in the assay on HL‐60 cells (72 h of treatment) was 1900 ± 900 nM; with HL‐60R cells [1], 2100 ± 200 nM; in the assay with MCF‐7 cells, more than 50 µM; with hTERT‐RPE‐1 cells, more than 20 µM; in the assay with 1‐7HB2 cells, more than 20 µM. The “Cell growth inhibition (%)” value in the assay with HL‐60R cells [2] (48 h, alone at 1 µM) is reported as 2.5 ± 1.8%. The “synergistic / potentiation effect with the reference drugs (VIN or PTX)” value (“synergistic / potentiation effect” below) in the assay on HL‐60R cells [2] was “synergistic effect”.

On to `COc1ccccc1Cn1cc2c(c1)-c1oncc1CC2` [4b], for which the IC50 in the assay on HL‐60 cells (72 h of treatment) is 2100 ± 400 nM; in the assay with HL‐60R cells [1] it was 2400 ± 800 nM; with MCF‐7 cells, more than 50 µM; in the assay with hTERT‐RPE‐1 cells, more than 20 µM; with 1‐7HB2 cells it was more than 20 µM.

Take `COc1cccc(Cn2cc3c(c2)-c2oncc2CC3)c1` [4c]: the concentration for half-maximal inhibition (IC50) was more than 50 µM in the assay on MCF‐7 cells, more than 5 µM in the assay with hTERT‐RPE‐1 cells and more than 5 µM with 1‐7HB2 cells. The “Cell growth inhibition (%)” value in the assay with HL‐60R cells [2] (48 h, alone at 0.2 µM) was found to be 42.5 ± 0.3%. For the same molecule, the “synergistic / potentiation effect” value in the assay with HL‐60R cells [2] was “synergistic effect”.

Turning to `COc1ccc(Cn2cc3c(c2)-c2oncc2CC3)cc1OC` [4d], the IC50 with HL‐60 cells (72 h of treatment) was 600 ± 10 nM; in the assay with HL‐60R cells [1], 700 ± 90 nM; in the assay with MCF‐7 cells, more than 50 µM; in the assay with hTERT‐RPE‐1 cells it was more than 5 µM; in the assay with 1‐7HB2 cells it was more than 5 µM.

Regarding `COc1cc(Cn2cc3c(c2)-c2oncc2CC3)cc(OC)c1OC` [4e], the values for the IC50 with MCF‐7 cells, in the assay with hTERT‐RPE‐1 cells and in the assay with 1‐7HB2 cells were more than 5 µM, more than 0.1 µM and more than 0.1 µM, respectively. Besides, the “synergistic / potentiation effect” value in the assay with HL‐60R cells [2] is listed as “not detected any potentiation”. The “Fluorescence (%) HL‐60R” value in the assay on HL‐60R cell line (0.04 µM for 24 h, without doxorubicin) is on record as 0.2 ± 0.07%. Moreover, the “Fluorescence (%) HL‐60R (intracellular accumulation of doxorubicin)” value with HL‐60R cell line (pretreated 0.04 µM for 24 h + Doxo 2 µM 1 h) is 8.8 ± 0.3 %.

Turning to `COc1cccc2c1C(=O)c1c(O)c3c(c(O)c1C2=O)C[C@@](O)(C(=O)CO)C[C@@H]3O[C@H]1C[C@H](N)[C@H](O)[C@H](C)O1` [Doxorubicin, doxorubicin, reference compound], the “Fluorescence (%) HL‐60R” value stood at 4.4% with HL‐60R cell line (Doxo 2 µM 1 h alone) and 4.4 ± 0.3% in the assay with HL‐60R cell line (Doxo 2 µM 1 h alone, listed as Doxo).

Consider `COc1ccc(CCN(C)CCCC(C#N)(c2ccc(OC)c(OC)c2)C(C)C)cc1OC` (centres unmarked) [Verapamil, reference compound], for which the “Fluorescence (%) HL‐60R” value in the assay with HL‐60R cell line (10 µM for 24 h, without doxorubicin) worked out at 0.3 ± 0.1%. The “Fluorescence (%) HL‐60R (intracellular accumulation of doxorubicin)” value in the assay on HL‐60R cell line (pretreated 10 µM for 24 h + Doxo 2 µM 1 h) amounted to 58.5 ± 2.5 %.

With `CC[C@]1(O)C[C@@H]2CN(CCc3c([nH]c4ccccc34)[C@@](C(=O)OC)(c3cc4c(cc3OC)N(C)[C@H]3[C@@](O)(C(=O)OC)[C@H](OC(C)=O)[C@]5(CC)C=CCN6CC[C@]43[C@@H]65)C2)C1` [Vinblastine, reference compound], the IC50 in the assay with HL‐60 cells (Homo sapiens, HL-60, 72 h of treatment) was determined as 50 nM; with HL‐60R cells [1] (HL60R), 820 ± 20 nM. Besides, the inhibition (in general, the share of the control response that was lost under treatment) at 0.3 µM in the assay with HL‐60R cells [2] (HL60R, 48 h, alone at 0.3 µM, read-out: Cell growth inhibition (%)) is 0%.
